ChEMBL document CHEMBL1137741, “QSAR models for 2-amino-6-arylsulfonylbenzonitriles and congeners HIV-1 reverse transcriptase inhibitors based on linear and nonlinear regression methods” (Eur J Med Chem, 2009)

Tested on: Human immunodeficiency virus 1
Test: Antiviral activity against HIV1
Type: functional, organism-based
Conditions: Human immunodeficiency virus 1, read-out: pIC50 (converted)

IC50 [µM] | SMILES
7.4 | N#Cc1c(N)cccc1Sc1cccc(Cl)c1
6.09 | Cc1cccc(Sc2cccc(N)c2C#N)c1
1.76 | Cc1cc(Cl)cc(Sc2cccc(N)c2C#N)c1
3 | N#Cc1c(N)cccc1S(=O)(=O)c1ccccc1F
39.2 | N#Cc1c(N)cccc1[S+]([O-])c1ccccc1Br (stereo not drawn)
16 | Cc1ccccc1Sc1cccc(N)c1C#N
4.1 | N#Cc1c(N)cccc1Sc1ccccc1Cl
0.429 | Cc1cc(C)cc(Sc2cccc(N)c2C#N)c1
43.8 | N#Cc1ccc(Sc2cccc(N)c2C#N)cc1
12.8 | N#Cc1c(N)cccc1Sc1cccc(C(F)(F)F)c1
9.79 | N#Cc1c(N)cccc1Sc1cccc(F)c1
4.1 | N#Cc1c(N)cccc1S(=O)(=O)c1ccccc1Cl
2.3 | Cc1ccccc1S(=O)(=O)c1cccc(N)c1C#N
3.9 | N#Cc1ccccc1[S+]([O-])c1cccc(N)c1C#N (stereo not drawn)
6 | COc1cccc(Sc2cccc(N)c2C#N)c1
4.29 | COc1ccccc1Sc1cccc(N)c1C#N
2 | COc1cc(C)cc(Sc2cccc(N)c2C#N)c1
14.6 | N#Cc1c(N)cccc1Sc1ccccc1
5.11 | N#Cc1c(N)cccc1Sc1cccc(Br)c1
92.9 | Cc1ccccc1[S+]([O-])c1cccc(N)c1C#N (stereo not drawn)
1.73 | N#Cc1cccc(Sc2cccc(N)c2C#N)c1
30 | N#Cc1c(N)cccc1Sc1ccccc1Br
31.5 | N#Cc1c(N)cccc1Sc1cccc(N)c1
5 | N#Cc1c(N)cccc1S(=O)(=O)c1ccccc1Br
2 | N#Cc1c(N)cccc1S(=O)(=O)c1ccccc1
4.8 | COc1ccccc1[S+]([O-])c1cccc(N)c1C#N (stereo not drawn)

The remaining lines, values behind:

SMILES | IC50 [µM]
COc1cc(Sc2cccc(N)c2C#N)cc(C(F)(F)F)c1 | 5.11
CCCCOc1cc(C)cc(S(=O)(=O)c2cccc(N)c2C#N)c1 | 0.6
Cc1cc(Br)cc(S(=O)(=O)c2cccc(N)c2C#N)c1 | 0.02
COc1ccc(S(=O)(=O)c2cccc(N)c2C#N)cc1 | 25
N#Cc1cccc(S(=O)(=O)c2cccc(N)c2C#N)c1 | 2.4
N#Cc1ccc(S(=O)(=O)c2cccc(N)c2C#N)cc1 | 80
COc1cc(C(F)(F)F)cc(S(=O)(=O)c2cccc(N)c2C#N)c1 | 0.09
Cc1cc(Cl)cc(S(=O)(=O)c2cccc(N)c2C#N)c1 | 0.03
Cc1cc(O)cc(S(=O)(=O)c2cccc(N)c2C#N)c1 | 0.429
Cc1cc(Cl)cc([S+]([O-])c2cccc(N)c2C#N)c1 (stereo not drawn) | 0.32
N#Cc1c(N)cccc1S(=O)(=O)c1cc(Cl)ccc1Cl | 0.3
N#Cc1cccc([S+]([O-])c2cccc(N)c2C#N)c1 (stereo not drawn) | 14.2
Cc1ccc([S+]([O-])c2cccc(N)c2C#N)cc1 (stereo not drawn) | 49
COc1cccc(S(=O)(=O)c2cccc(N)c2C#N)c1 | 0.899
COc1cc([S+]([O-])c2cccc(N)c2C#N)cc(C(F)(F)F)c1 (stereo not drawn) | 2.07
N#Cc1c(N)cccc1[S+]([O-])c1cccc(C(F)(F)F)c1 (stereo not drawn) | 40
COc1cc(C)cc(S(=O)(=O)c2cccc(N)c2C#N)c1 | 0.05
N#Cc1c(N)cccc1S(=O)(=O)c1cccc(C(F)(F)F)c1 | 3.5
CCCOc1cc(C)cc(S(=O)(=O)c2cccc(N)c2C#N)c1 | 0.06

SMILES | IC50 [µM]
N#Cc1c(N)cccc1S(=O)(=O)c1cc(Cl)cc(Cl)c1 | 0.07
Cc1ccc(S(=O)(=O)c2cccc(N)c2C#N)cc1 | 9.51
N#Cc1c(N)cccc1S(=O)(=O)c1cccc(F)c1 | 3
N#Cc1c(N)cccc1S(=O)(=O)c1cccc(Cl)c1 | 0.59
Cc1cc(C)cc([S+]([O-])c2cccc(N)c2C#N)c1 (stereo not drawn) | 0.34
N#Cc1c(N)cccc1[S+]([O-])c1cccc(Br)c1 (stereo not drawn) | 0.08
Cc1cc(C)cc(S(=O)(=O)c2cccc(N)c2C#N)c1 | 0.01
CCOc1cc(C)cc(S(=O)(=O)c2cccc(N)c2C#N)c1 | 0.06
N#Cc1c(N)cccc1S(=O)(=O)c1cccc(Br)c1 | 0.539
N#Cc1c(N)cccc1S(=O)(=O)c1ccc(Cl)cc1 | 3
Cc1cccc([S+]([O-])c2cccc(N)c2C#N)c1 (stereo not drawn) | 29.2
N#Cc1ccccc1S(=O)(=O)c1cccc(N)c1C#N | 5.4
N#Cc1c(N)cccc1[S+]([O-])c1cc(Cl)ccc1Cl (stereo not drawn) | 9.84
N#Cc1c(N)cccc1[S+]([O-])c1ccc(Br)cc1 (stereo not drawn) | 20.2
COc1ccccc1S(=O)(=O)c1cccc(N)c1C#N | 0.6
Cc1cccc(S(=O)(=O)c2cccc(N)c2C#N)c1 | 0.4
COc1cccc([S+]([O-])c2cccc(N)c2C#N)c1 (stereo not drawn) | 16
N#Cc1c(N)cccc1S(=O)(=O)c1ccc(Br)cc1 | 20
